# Experimental data: paper PMC5601738, “Facile total synthesis of lysicamine and the anticancer activities of the Ru^II, Rh^III, Mn^II and Zn^II complexes of lysicamine” (Oncotarget, 2017)
# Columns and labels:
# [1] = system: HepG2 cells; assay: Hoechst33258 assay; settings: HepG2, 24 h; 2 at 3.5, 7.0, […]; 3 at 7.0, 14.0, 28.0 μM
# Method: The Hoechst33258 assay is commonly used to measure the changes in cell morphology caused by apoptosis [55]. The HepG2 cells were incubated with 2 (3.5, 7.0, and 14.0 μM) and 3 (7.0, 14.0, and 28.0 μM) for 24 h, respectively, then stained with Hoechst33258 and examined under a fluorescence microscope (Figure 4A).
# Hoechst33258 assay Cell cycle-, apoptotic-associated proteins used
# The morphology characters of apoptosis of HepG2 western blotting analysis
# cells treated with 2 and 3 were carried out by Hoechst Extraction of total protein
# 33258 staining. About 1×10^6 cells were seeded in six-well
# plates, and treated with 2 (3.5, 7.0 and 14.0 μM) and 3 After HepG2 cells incubated with 2 (3.5, 7.0, 14.0
# (7.0, 14.0 and 28.0 μM) for 24 h. The cells were fixed with μM) and 3 (7.0, 14.0, 28.0 μM) for 24 h, cells were
# then stained with Hoechst 33258 for another 10 min in on ice.
# [2] = system: HepG2 cells; assay: Apoptosis assay, Annexin V-FITC/PI flow cytometry; assay type: cell-based, human; settings: HepG2, 28.0 μM, 24 h; control […]
# [3] = system: caspase-8 in HepG2 cells; assay: Activated caspase-8 by flow cytometry; settings: HepG2, at IC50, 24 h; control 2.1 %
# Method: After treated, the cells were collected, and suspended in h at 37 °C in 5% CO2 incubator. The cells were harvested
# with annexin V-FITC and PI for 1 h at room temperature cytometer equipped. The results were represented as the
# in the dark and immediately analyzed by flow cytometry. percent change on the activity comparing with the control.
# Caspase- 3, -8 and -9 activity determinations by our previously report [3].
# [4] = system: cell cycle regulatory proteins in HepG2 cells; assay: Western blot of cell cycle regulatory proteins; settings: HepG2, 24 h
# Method: HepG2 cells were incubated with 2 and 3 at increasing concentrations for 24 h, and the expression of cell cycle regulatory proteins in the S phase was examined through Western blot analysis.
# [5] = system: T-24; assay: MTT assay, T-24 cells; assay type: cell-based, human; settings: 48 h
smiles,measurement,setting,value
"COc1cc2ccnc3c2c(c1OC)-c1ccccc1C3=O.COc1cc2ccnc3c2c(c1OC)-c1ccccc1C3=O.COc1cc2ccnc3c2c(c1OC)-c1ccccc1C3=O.ClC(Cl)Cl.ClC(Cl)Cl.ClC(Cl)Cl.[Mn+2].[O-][Cl+3]([O-])([O-])[O-].[O-][Cl+3]([O-])([O-])[O-] [Complex 3, [Mn(LY)3](ClO4)2·3CHCl3]",Hoechst33258 fluorescence / apoptotic cell morphology,[1],stronger fluorescence in a dose-dependent manner
same,percentages of cells undergoing apoptosis and necrosis,[2],35.8%
same,proportion of activated caspase-8 cells,[3],12.3%
same,proliferating cell nuclear antigen (PCNA) level,[4],decreased
same,"expression of Cdk2, p-Cdc25A, p53, p21 and p27",[4]; increasing concentrations,increased
same,inhibitive ratio T-24,[5]; 20 μmol/L,45.42±1.66%
same,IC50,"[5]; MTT, mean ± SD from five independent experiments",15.4 ± 1.81 µM
